Assay results reported in patent publication US8791126B2, “2-alkynyl-N9-propargyladenine and medicinal use thereof” (Yamasa Corporation, priority 2010, dated 2014).

Legend:
[1] = target: T1, adenosine A2a receptor (Rattus norvegicus, UniProt P30543); assay: Adenosine A2a receptor antagonist activity by the Magnus method (excised femoral vein); assay type: cell-based; details: femoral vein of male Wistar rats, contracted with 10^−5 M serotonin, relaxed with 10^−7 M 2-octynyladenosine; FIG. 1
T1 construct: the femoral vein was excised from male Wistar rats; from tissue; host or cells: femoral vein of male Wistar rats
Experimental: In order to clarify the adenosine A2a receptor antagonist activity of the compound of the present invention, an evaluation by the Magnus method was conducted. The Magnus method is a method of evaluating the action of drugs using muscle contraction/relaxation as an index, and is used generally as a method for determining the antagonist activity.
In the evaluation, firstly, the femoral vein was excised from male Wistar rats. A Krebs-Henseleit solution aerated with O2 gas was filled in an organ bath and kept at 37° C., and the excised femoral vein was suspended therein under 0.5 g of resting tension. The contractile and relaxing response was determined via a pickup transducer.
In order to check the reactivity of the compound, firstly, the test compound was added dropwise in the organ bath. 10 minutes after the dropwise addition, serotonin was added dropwise in the organ bath such that the concentration thereof was 10^−5 M, to make the femoral vein contract. In a state where the contractile response was stable, 10^−7 M of an adenosine A2a receptor agonist, 2-octynyladenosine was administered to induce the relaxing response, and the inhibitory effect of the compound of the present invention and a positive control on the relaxing response was evaluated. Note that, in the representation of the results, the degree of the contraction at the time of addition of each substance was calculated, on condition that the degree of the relaxation when the compound of the present invention and the positive control were not added dropwise at all was designated as a control for the whole, and the degree of the relaxation for the control for the whole was set to be 100%.
As a compound of the present invention, the formula (3) compound, the formula (4) compound, the formula (5) compound, the formula (9) compound, and the formula (10) compound, which were described in the synthesis examples, were used. Note that the formula (9) compound is a publicly-known compound which has already been described in Patent Literature 2. In addition, as a positive control, 8-[(E)-2-(3,4-dimethoxyphenyl)vinyl]-1,3-diethyl-7-methyl-3,7-dihydro-1H-purin-2,6-dione (KW-6002) described in Patent Literature 1, which is an adenosine A2a receptor antagonist which has conventionally been deemed to have an effect on the treatment of Parkinson's syndrome, and the compound of the following formula (hereinafter referred to as “AT-compound”), which is shown in Patent Literature 3, compound No. 9 in [Table A], were used.

[2] = Photostability study in solid state; assay type: physicochemical; details: under a fluorescent light for 3 weeks, HPLC
Experimental: Of the compounds of the present invention, the formula (4) compound, the formula (10) compound, and the formula (11) compound were evaluated for their photostability in solid state.
The study was conducted in accordance with “Guideline for the Photostability Testing of New Drug Substances and Products.” That is, each compound in solid state was placed under a fluorescent light statically for 3 weeks, and the residual ratio was calculated from the HPLC analysis results before and after the placement.

[3] = system: 6-OHDA-induced unilaterally substantia nigra lesioned rats; assay: 6-OHDA-induced unilaterally substantia nigra lesioned rats, contralateral rotation; assay type: in vivo, rat; details: oral, administered singly, observed 5 hours, versus KW-6002; FIGS. 5-7
Experimental: 6-Hydroxydopamine (6-OHDA) is taken into neurons by dopamine reuptake transporters and acts as a neurotoxin, and is used for the selective denaturation and removal of dopaminergic neurons. This 6-OHDA was locally administered to the corpus striatum to induce the cell death of dopaminergic nerve and reduce dopamine, and thereby induce the symptoms of Parkinson's syndrome. In the study, 6-OHDA was injected into the right ventral tegmental area of male SD rats, 8-weeks old, and after 4 weeks, apomorphine (5 mg/kg, s.c.) was administered, and the animals which had shown a certain count of the counterclockwise rotation were selected. Using the model rats, the evaluation of the test compound as a therapeutic agent for Parkinson's syndrome was commenced.
Male SD rats, 8-weeks old, were anesthetized with pentobarbital (50 mg/kg), and the hairs were removed broadly from the occiput through the back of the neck, and then an ear bar was attached thereto, and the rats were fixed in a brain stereotaxic apparatus. The skin of the head was incised 3 to 4 cm with a scalpel, the periosteum was stripped off to expose the skull and the suture was checked. […] 4 weeks after the 6-OHDA administration, apomorphine (5 mg/kg, s.c.) was administered, and the count of the counterclockwise rotation for 5 minutes was counted from 5 minutes after the administration. […]

[4] = target: human adenosine A2a receptor (Homo sapiens, UniProt P29274); assay: Binding assay to human adenosine A2a receptor
[5] = system: haloperidol-induced catalepsy; assay: Haloperidol-induced catalepsy; assay type: in vivo; details: male ddY mice, haloperidol 1 mg/kg i.p., compound oral 0.03-10 mg/kg 1 hour later, scored 1, 3, 5, 7 hours; FIGS. 2-4
Experimental: Haloperidol is known to block dopamine receptors. This method is used generally as a method of evaluating the therapeutic effect of the therapeutic agents for Parkinson's syndrome, by using the effect of inducing catalepsy (when being made to take a certain posture or position of the limbs extrinsically, continuing to keep the posture as it is without willing to change it by oneself) caused by administration of haloperidol. The experiment was conducted by using 7 male ddY mice, 5-weeks old, per group. Haloperidol was suspended in 0.5% CMC, and then administered intraperitoneally to the mice at 1 mg/kg. In the study, as a test compound, the compounds each represented by the formula (4), the formula (5), the formula (10), the formula (11), the formula (12), the formula (13), or the formula (14) in the above synthesis examples were used, and as a positive control, KW-6002 (the test compound and KW-6002 were 0.03, 0.1, 0.3, 1, 3, 10 mg/kg) or L-DOPA (100 mg/kg)+benserazide (25 mg/kg) was used. The above 4 compounds were each suspended in 0.5% CMC, and orally administered to the mice 1 hour after the haloperidol administration. In addition, the case where only CMC was administered was designated as a control for the whole. After a lapse of 1, 3, 5, and 7 hours from the administration of the test compound, both forelimbs only, or both hindlimbs only, of a mouse were put in turn on an acrylic stand, height 4.5 cm, width 1.0 cm, and catalepsy was determined, and the state was scored as Table 2 below. [table]

T1 sequence (P30543 whole entry): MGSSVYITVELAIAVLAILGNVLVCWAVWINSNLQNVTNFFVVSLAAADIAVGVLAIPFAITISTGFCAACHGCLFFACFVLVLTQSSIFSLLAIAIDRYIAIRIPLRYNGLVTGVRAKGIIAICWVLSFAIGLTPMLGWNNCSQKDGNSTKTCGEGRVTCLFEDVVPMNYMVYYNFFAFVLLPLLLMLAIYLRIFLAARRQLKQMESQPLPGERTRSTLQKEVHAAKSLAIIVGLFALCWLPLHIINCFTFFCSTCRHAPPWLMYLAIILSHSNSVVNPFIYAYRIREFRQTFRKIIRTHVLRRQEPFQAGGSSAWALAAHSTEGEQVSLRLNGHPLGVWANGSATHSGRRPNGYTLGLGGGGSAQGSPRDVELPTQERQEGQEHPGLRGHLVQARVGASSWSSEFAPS
Sequence of human adenosine A2a receptor (P29274 whole entry): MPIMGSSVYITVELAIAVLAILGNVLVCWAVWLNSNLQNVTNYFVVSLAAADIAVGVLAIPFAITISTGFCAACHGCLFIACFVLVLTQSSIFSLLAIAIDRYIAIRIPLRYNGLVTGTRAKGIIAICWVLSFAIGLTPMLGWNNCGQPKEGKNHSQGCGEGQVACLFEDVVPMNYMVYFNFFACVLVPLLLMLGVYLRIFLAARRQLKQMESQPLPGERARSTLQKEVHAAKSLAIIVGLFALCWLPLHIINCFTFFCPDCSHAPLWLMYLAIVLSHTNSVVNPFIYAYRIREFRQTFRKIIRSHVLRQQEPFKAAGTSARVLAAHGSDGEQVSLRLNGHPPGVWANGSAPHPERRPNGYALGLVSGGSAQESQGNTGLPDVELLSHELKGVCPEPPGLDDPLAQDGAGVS

For `C#CCn1cnc2c(N)nc(C#CCC3CCN(C(=O)Oc4ccc(C(=O)OC)cc4)CC3)nc21` [AT-compound, reference compound], the “inhibition of the relaxing response of the femoral vein (adenosine A2a receptor antagonist activity)” value (from here on “inhibition”) [1] was “no potent activity”.

For `C#CCn1c(Br)nc2c(N)nc(C#CCCCCCC)nc21` [formula (4) compound, 8-bromo-2-(1-octyn-1-yl)-N^9-propargyladenine], the residual ratio [2] was 99.0%, the “inhibition” value [1] was “more potent activity” and the “count of the contralateral rotation” value [3] was “exhibit an effect which is stronger and continuously increase the count of the contralateral rotation”. The Ki [4] was 0.581 nM and the “score of catalepsy (improving effect on haloperidol-induced catalepsy)” value (“score of catalepsy” below) [5] was “kept the score of catalepsy low, with a smaller dose than that of KW-6002”.

In the case of `C#CCn1c(-c2ccco2)nc2c(N)nc(C#CCCCCCC)nc21` [formula (5) compound, 8-(2-furyl)-2-(1-octyn-1-yl)-N^9-propargyl-adenine], the “inhibition” value [1] is reported as “more potent activity” and the “score of catalepsy” value [5] is reported as “the catalepsy score was also kept low compared with that of L-DOPA or the formula (4) compound”.

For `C#CCn1c(Br)nc2c(N)nc(C#CC3(O)CCCCC3)nc21` [formula (10) compound, 8-bromo-2-[2-(1-hydroxycyclohexyl)-1-ethyn-1-yl]-N^9-propargyladenine], the residual ratio [2] was 98.8%, the “inhibition” value [1] was “more potent activity” and the “count of the contralateral rotation” value [3] was “exhibit an effect which is stronger and continuously increase the count of the contralateral rotation”. For the same molecule, the “score of catalepsy” value [5] was “kept the score of catalepsy low, with a smaller dose than that of KW-6002”.

With `C#CCn1c(-c2ccco2)nc2c(N)nc(C#CC3(O)CCCCC3)nc21` [formula (11) compound, 8-(2-furyl)-2-[2-(1-hydroxycyclohexyl)-1-ethyn-1-yl]-N^9-propargyladenine] the residual ratio [2] was 100.2% and the “score of catalepsy” value [5] was “exhibit an effect for a long time, with a smaller dose than that of the positive control KW-6002”.

With `C#CCn1c(Cl)nc2c(N)nc(C#CCCCCCC)nc21` [formula (12) compound, 8-chloro-2-(1-octynyl)-N^9-propargyladenine] the “score of catalepsy” value [5] was “exhibit an effect for a long time, with a smaller dose than that of the positive control KW-6002”.

For `C#CCn1c(Cl)nc2c(N)nc(C#CC3(O)CCCCC3)nc21` [formula (13) compound, 8-chloro-2-[2-(1-hydroxycyclohexyl)-1-ethyn-1-yl]-N^9-propargyladenine], the “score of catalepsy” value [5] was “exhibit an effect for a long time, with a smaller dose than that of the positive control KW-6002”.

With `C#CCn1c(-n2nccn2)nc2c(N)nc(C#CCCCCCC)nc21` [formula (14) compound, 8-(1,2,3-triazol-2-yl)-2-(1-octynyl)-N^9-propargyladenine] the “score of catalepsy” value [5] was “exhibit an effect for a long time, with a smaller dose than that of the positive control KW-6002”.
